Target: T1, T1R1/T1R3 umami receptor (Homo sapiens, UniProt Q7RTX0+Q7RTX1, C757R)
T1 construct: expressed in transfected cells; host or cells: HEK293 cells, transiently transfected (Lipofectamine 2000)
T1 sequence (Q7RTX1 21-841): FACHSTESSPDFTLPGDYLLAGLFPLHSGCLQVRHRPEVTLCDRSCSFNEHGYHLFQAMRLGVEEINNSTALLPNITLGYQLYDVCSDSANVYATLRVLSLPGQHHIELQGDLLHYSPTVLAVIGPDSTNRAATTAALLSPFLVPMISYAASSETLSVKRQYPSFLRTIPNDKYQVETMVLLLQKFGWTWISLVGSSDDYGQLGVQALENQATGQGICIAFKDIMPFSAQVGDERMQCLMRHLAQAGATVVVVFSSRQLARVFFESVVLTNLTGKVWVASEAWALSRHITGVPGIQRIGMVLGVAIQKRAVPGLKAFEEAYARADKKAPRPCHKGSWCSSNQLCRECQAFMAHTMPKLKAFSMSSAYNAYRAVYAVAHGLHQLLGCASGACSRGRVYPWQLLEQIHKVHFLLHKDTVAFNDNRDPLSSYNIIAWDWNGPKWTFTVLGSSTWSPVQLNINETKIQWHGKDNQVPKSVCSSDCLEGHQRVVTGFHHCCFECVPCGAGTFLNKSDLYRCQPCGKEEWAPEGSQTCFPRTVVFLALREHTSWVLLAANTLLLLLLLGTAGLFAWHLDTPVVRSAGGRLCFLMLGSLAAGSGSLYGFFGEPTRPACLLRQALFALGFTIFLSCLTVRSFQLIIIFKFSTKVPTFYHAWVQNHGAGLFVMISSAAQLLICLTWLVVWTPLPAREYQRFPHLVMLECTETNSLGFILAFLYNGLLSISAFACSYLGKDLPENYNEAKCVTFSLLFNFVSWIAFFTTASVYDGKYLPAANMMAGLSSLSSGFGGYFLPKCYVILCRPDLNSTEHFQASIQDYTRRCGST
T1 sequence (Q7RTX0 with tags, fused parts or gaps C757R): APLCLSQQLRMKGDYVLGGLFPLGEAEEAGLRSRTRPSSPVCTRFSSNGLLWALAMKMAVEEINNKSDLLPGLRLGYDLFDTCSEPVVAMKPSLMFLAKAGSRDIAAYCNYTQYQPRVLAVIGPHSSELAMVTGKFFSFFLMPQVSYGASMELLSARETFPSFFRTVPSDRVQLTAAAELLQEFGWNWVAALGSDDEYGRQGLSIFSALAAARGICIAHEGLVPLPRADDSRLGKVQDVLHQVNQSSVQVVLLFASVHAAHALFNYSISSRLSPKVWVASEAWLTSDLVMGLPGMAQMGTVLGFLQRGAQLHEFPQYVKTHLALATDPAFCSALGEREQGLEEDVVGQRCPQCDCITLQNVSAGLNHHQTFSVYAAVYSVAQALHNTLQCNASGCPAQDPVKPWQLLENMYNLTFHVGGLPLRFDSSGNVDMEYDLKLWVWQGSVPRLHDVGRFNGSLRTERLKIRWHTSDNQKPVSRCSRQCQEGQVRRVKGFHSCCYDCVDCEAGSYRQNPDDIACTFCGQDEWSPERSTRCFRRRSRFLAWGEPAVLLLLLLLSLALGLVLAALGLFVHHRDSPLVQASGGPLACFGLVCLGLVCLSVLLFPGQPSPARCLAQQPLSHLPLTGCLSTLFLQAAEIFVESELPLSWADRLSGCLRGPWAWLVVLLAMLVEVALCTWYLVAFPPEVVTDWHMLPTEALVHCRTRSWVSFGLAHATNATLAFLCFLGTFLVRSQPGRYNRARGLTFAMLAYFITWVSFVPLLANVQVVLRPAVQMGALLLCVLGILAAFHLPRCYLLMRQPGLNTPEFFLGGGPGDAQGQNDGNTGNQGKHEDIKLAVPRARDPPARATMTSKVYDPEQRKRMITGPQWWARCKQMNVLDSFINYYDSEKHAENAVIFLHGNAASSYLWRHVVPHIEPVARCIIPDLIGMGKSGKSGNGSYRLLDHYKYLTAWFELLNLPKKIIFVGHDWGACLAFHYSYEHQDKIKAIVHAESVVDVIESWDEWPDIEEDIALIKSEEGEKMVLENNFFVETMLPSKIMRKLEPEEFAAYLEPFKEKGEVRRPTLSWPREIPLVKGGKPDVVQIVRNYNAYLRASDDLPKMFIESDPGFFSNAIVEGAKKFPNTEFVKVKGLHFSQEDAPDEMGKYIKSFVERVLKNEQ
Experiment: BRET assay (T1R1/T1R3-Rluc and GFP-2-β-arrestin-2 in HEK293 cells)
Type: cell-based
Parameters: key: +: A BRET signal above the values achieved for buffer alone was defined as umami receptor-specific
Conditions: MSG 10 mM
Method: FIG. 2 Activation of the T1R1/T1R3 umami receptor expressed in HEK293-Gα15 cells as measured by BRET assays as described in Example 2. Test solutions (or buffer) as indicated and substrate were added to the cells. The BRET signals were determined as the ratio between readings taken at the acceptor wavelength (515 nm) divided by the signals determined for the donor (400 nm). To correct for background signal due to overlap of donor emission at the acceptor wavelength, the BRET ratio was determined in parallel for cells expressing the donor alone (T1R1/T1R3-Rluc). This BRET background value was subtracted from the BRET value obtained for the cells expressing both BRET partners (BRET=BRET ratio−background ratio). A BRET signal above the values achieved for buffer alone was defined as umami receptor-specific (see also table 2B).
The extracts or crude mixtures described below are examples for natural samples unsuitable for testing with a calcium-based receptor assay due to their high non-specific background signal. They are from different origin and are selected to illustrate a wide range of potential test samples. […] Calcium-Based Receptor Assay: Activation of the T1R1/T1R3 umami receptor expressed in HEK293-Gα15 cells has been measured by monitoring the release of intracellular calcium. […]

N[C@@H](CCC(=O)O)C(=O)[O-].[Na+] [MSG, Monosodium glutamate]
T1R1/T1R3 receptor-specific signal, BRET assay: +

Reference: patent publication US8795977B2, “Method for screening a potential modulator compound of a taste receptor” (Conopco, Inc., priority 2009, dated 2014)
